# Results: patent publication US4946828A, “Novel insulin peptides” (Novo Nordisk A/S, priority 1985, dated 1990)
# Columns and labels:
# mouse = assay: Mouse blood sugar depletion test (British Pharmacopoeia 1980, A 141-A 142); format: in vivo; settings: solutions without additions of zinc (zinc content 8-10 μg/ml from crystals); estimated potencies
# Experimental: The potencies of insulin compounds were accessed in the mouse blood sugar depletion test (British Pharmacopoeia 1980, A 141-A 142). In order to minimize the problem of estimating potency of insulins having a timing different from the standard, insulin solutions for potency determinations were made up without additions of zinc. Solutions were made up to contain […] based on the absorbance at 276 nm. The zinc content of solutions were 8-10 μg/ml, arising from the crystalline derivatives.
# fasted rabbits = assay: Test for prolongation of insulin effect (hypoglycemic effect, British Pharmacopoeia 1980, A 142); format: in vivo, rabbit; settings: for Glucose in percent of initial, 1 h / Glucose in percent of initial, 2 h / Glucose in percent of initial, 4 h / Glucose in percent of initial, 6 h: pH 4.5, 14.3 nmole per rabbit s.c.; for Prolongation of action: about 240 nmole/ml
# Experimental: Sterile injectable solutions of the compounds of formula I for testing of the degree of prolonged action were made using 1.6% (w/v) glycerol as the isotonicum, using 0.3% (w/v) m-cresol as the preservative, […] The pH values of the solutions were adjusted sufficiently off the isoelectric point of the compounds of formula I to keep the solutions clear upon storage at 4° C. The solutions contained 240 nmole/ml of the compounds of formula I. The concentration of 240 nmole/ml was established by measurement of the absorbance at 276 nm of a more concentrated stock solution devoid of m-cresol, using the molar extinction coefficient for porcine insulin of 6100 for these derivatives (see Handbuch der Inneren Medizin, Vol. 7/Part 2A, Editor: Oberdisse, 1975, 113). […] 1 U corresponds to 5.95 nmole.
# Injectable solutions containing 240 nmole/ml of the compounds of formula I stated in Table II and having the pH values and content of zinc stated therein were made.
# The prolongation of the hypoglycemic effect produced by the injectable solutions of insulin was tested according to British Pharmacopoeia 1980, A 142, in fasted rabbits. Each test solution was administered subcutaneously in a dosis of 14.3 nmole per rabbit in 12 animals weighing 3-4 kg, and the course of the hypoglycemia was followed for 6 hours.
# [1] = after subcutaneous administration; cited from earlier work
Substance,"Potency relative to insulin, % (mouse) [%]","Glucose in percent of initial, 1 h (fasted rabbits; Zn++ 80 μg/ml)","Glucose in percent of initial, 2 h (fasted rabbits; Zn++ 80 μg/ml)","Glucose in percent of initial, 4 h (fasted rabbits; Zn++ 80 μg/ml)","Glucose in percent of initial, 6 h (fasted rabbits; Zn++ 80 μg/ml)",also measured
Lys^B27 human insulin [Lys^B27 insulin],88,47% of initial,40% of initial,55% of initial,93% of initial,–
"Gln^B13,Arg^B27,Thr^B30 --NH2 human insulin [Gln^B13,Arg^B27,Thr^B30 --NH2 insulin]",62,–,–,–,–,–
Gln^A4 insulin,79,–,–,–,–,–
"Lys^B27,Lys^B30 --NH2 human insulin [Lys^B27,Lys^B30 --NH2 insulin]",56,–,–,–,–,"Glucose in percent of initial, 1 h (fasted rabbits; Zn++ 9.5 μg/ml): 72% of initial; Glucose in percent of initial, 2 h (fasted rabbits; Zn++ 9.5 μg/ml): 65% of initial; Glucose in percent of initial, 4 h (fasted rabbits; Zn++ 9.5 μg/ml): 65% of initial; Glucose in percent of initial, 6 h (fasted rabbits; Zn++ 9.5 μg/ml): 60% of initial"
"Gln^A17,Gln^B13,Thr^B30 --NH2 human insulin [Gln^A17,Gln^B13,Thr^B30 --NH2 insulin]",49,–,–,–,–,–
"Gln^A17,Thr^B30 --NH2 human insulin [Gln^A17,Thr^B30 --NH2 insulin]",67,65% of initial,63% of initial,68% of initial,83% of initial,–
"Gln^A17,Lys^B30 --NH2 human insulin [Gln^A17,Lys^B30 --NH2 insulin]",62,60% of initial,56% of initial,73% of initial,86% of initial,–
"Arg^B27,Thr^B30 --NH2 human insulin [Arg^B27,Thr^B30 --NH2 insulin]",92,88% of initial,86% of initial,85% of initial,81% of initial,"Prolongation of action (fasted rabbits; 3 zinc atoms per hexamer, 8 μg zinc/ml): very prolonged action; Glucose in percent of initial, 1 h (fasted rabbits; Zn++ […]): 62% of initial; Glucose in percent of initial, 2 h (fasted rabbits; Zn++ […]): 64% of initial; Glucose in percent of initial, 4 h (fasted rabbits; Zn++ […]): 66% of initial; Glucose in percent of initial, 6 h (fasted rabbits; Zn++ […]): 67% of initial"
Gln^B21 insulin,96,–,–,–,–,–
"Arg^B27,Lys^B30 --NH2 human insulin [Arg^B27,Lys^B30 --NH2 insulin]",84,85% of initial,83% of initial,81% of initial,79% of initial,"Glucose in percent of initial, 1 h (fasted rabbits; Zn++ 10.9 μg/ml): 78% of initial; Glucose in percent of initial, 2 h (fasted rabbits; Zn++ 10.9 μg/ml): 73% of initial; Glucose in percent of initial, 4 h (fasted rabbits; Zn++ 10.9 μg/ml): 69% of initial; Glucose in percent of initial, 6 h (fasted rabbits; Zn++ 10.9 μg/ml): 67% of initial"
"Lys^B27,Thr^B30 --NH2 human insulin [Lys^B27,Thr^B30 --NH2 insulin]",82,–,–,–,–,"Glucose in percent of initial, 1 h (fasted rabbits; Zn++ […]): 56% of initial; Glucose in percent of initial, 2 h (fasted rabbits; Zn++ […]): 55% of initial; Glucose in percent of initial, 4 h (fasted rabbits; Zn++ […]): 62% of initial; Glucose in percent of initial, 6 h (fasted rabbits; Zn++ […]): 61% of initial"
Lys^B30 --NH2 insulin,–,74% of initial,83% of initial,80% of initial,82% of initial,"Prolongation of action (fasted rabbits; 30 zinc per hexamer, 80 μg zinc/ml): moderate prolongation of action"
"Gln^B13,Arg^B27 human insulin [Gln^B13,Arg^B27 insulin]",78,55% of initial,46% of initial,61% of initial,91% of initial,–
"Gln^A17,Arg^B27,Thr^B30 --NH2 human insulin [Gln^A17,Arg^B27,Thr^B30 --NH2 insulin]",71,–,–,–,–,–
Arg^B27 human insulin [Arg^B27 insulin],87,45% of initial,34% of initial,51% of initial,91% of initial,–
"Gln^B13,Thr^B30 --NH2 human insulin [Gln^B13,Thr^B30 --NH2 insulin]",–,–,–,–,–,"Glucose in percent of initial, 1 h (fasted rabbits; Zn++ […]): 91% of initial; Glucose in percent of initial, 2 h (fasted rabbits; Zn++ […]): 92% of initial; Glucose in percent of initial, 4 h (fasted rabbits; Zn++ […]): 92% of initial; Glucose in percent of initial, 6 h (fasted rabbits; Zn++ […]): 90% of initial"
"Gln^A17,Arg^B27human insulin [Gln^A17,Arg^B27 insulin]",69,53% of initial,47% of initial,50% of initial,66% of initial,–
"Gln^B13,Gln^A17 human insulin [Gln^A17,Gln^B13 insulin]",50,53% of initial,47% of initial,55% of initial,82% of initial,–
"A1,B29-di-Boc substituted insulin",–,–,–,–,–,Prolonged insulin action [1]: too slightly prolonged action to be clinically useful
